Values after ≈ are worked out from the molar mass of the structure shown. Where two headings read alike, the source gives them in different places.
Key:
Saccharomyces sake = assay: Minimal inhibitory concentration (agar); type: cell-based; conditions: potato agar, pH 6.4, 4 days, 27° C.
Trichophyton ferrugineum = assay: Minimal inhibitory concentration (agar); type: cell-based; conditions: potato agar, pH 6.4, 4 days, 27° C.
Aspergillus niger = assay: Minimal inhibitory concentration (agar); type: cell-based; conditions: potato agar, pH 6.4, 4 days, 27° C.
Protocol: (§1) Minimal inhibitory concentration was assayed by agar dilution method
(§2) (potato agar, pH 6.4, 27° C., 4 days).
(§3) P potato agar (pH 6.4, 4 days, 27° C.)

Aspergillus fumigatus = assay: Minimal inhibitory concentration (agar dilution method); type: cell-based; conditions: potato agar, pH 6.4, 27° C., 4 days
Protocol: as §1, §2

Microsporum gypseum = assay: as above; type: cell-based; conditions: potato agar, pH 6.4, 27° C., 4 days
Protocol: as §1, §2

[1] = test system: Trichophyton interdigitale; assay: Minimal inhibitory concentration (agar); type: cell-based; conditions: potato agar, pH 6.4, 4 days, 27° C.
Trichophyton asteroides = assay: Minimal inhibitory concentration (agar); type: cell-based; conditions: potato agar, pH 6.4, 4 days, 27° C.
Trichophyton violaceum = assay: Minimal inhibitory concentration (agar); type: cell-based; conditions: potato agar, pH 6.4, 4 days, 27° C.
Candida albicans = assay: Minimal inhibitory concentration (agar); type: cell-based; conditions: pH 6.4, 4 days, 27° C.
Protocol: as §3
(§4) MIC Minimal inhibitory concentration
as §1, §2

Trichophyton rubrum = assay: Minimal inhibitory concentration (agar); type: cell-based; conditions: potato agar, pH 6.4, 4 days, 27° C.
Protocol: as §3, §4, §1, §2

Trichophyton schoenleini = assay: Minimal inhibitory concentration (agar); type: cell-based; conditions: potato agar, pH 6.4, 4 days, 27° C.
Protocol: as §3, §4, §1, §2

[2] = test system: mycoplasma, Gram-positive bacteria and tricophyton; assay: Antimicrobial activity (in words); type: cell-based
Escherichia coli NIHJ = assay: Minimal inhibitory concentration (agar); type: cell-based; conditions: 48 h, nutrient agar, pH 7.0, 2 days, 37° C.
Gram-positive bacteria = assay: Antibacterial activity (in words); type: cell-based
[3] = test system: Mycoplasma gallisepticum 333P (Spiramycin resistant); assay: Minimal inhibitory concentration (PPLO agar); type: cell-based; conditions: Mycoplasmoides gallisepticum, 192 h, pH 7.8
Protocol: (§5) H Hokken PPLO agar (pH 7.8, 8 days, 37° C.)
(§6) E Eiken PPLO agar (pH 7.8, 8 days, 37° C.)
as §4

[4] = test system: Mycoplasma gallisepticum KP-13; assay: Minimal inhibitory concentration (PPLO agar); type: cell-based; conditions: Mycoplasmoides gallisepticum, KP13, 192 h; Eiken PPLO agar, pH 7.8, 8 days, 37° C.; read-out: MIC
Protocol: as §5, §6, §4

[5] = test system: Mycoplasma gallisepticum S-6; assay: Minimal inhibitory concentration (PPLO agar); type: cell-based; conditions: Mycoplasmoides gallisepticum, S6, 192 h; Eiken PPLO agar, pH 7.8, 8 days, 37° C.; read-out: MIC
Protocol: as §5, §6, §4

Mycoplasma iners = assay: Minimal inhibitory concentration (PPLO agar); type: cell-based; conditions: Mycoplasmopsis iners, 192 h; Eiken PPLO agar, pH 7.8, 8 days, 37° C.
Protocol: as §5, §4, §6

Mycoplasma gallinarum = assay: Minimal inhibitory concentration (PPLO agar); type: cell-based; conditions: Mycoplasmopsis gallinarum, 192 h, Eiken PPLO agar, pH 7.8, 8 days, 37° C.
Protocol: as §5, §4, §6

Sclerotinia cinerea = assay: Minimal inhibitory concentration (agar); type: cell-based; conditions: 96 h, potato agar, pH 6.4, 4 days, 27° C.
Protocol: | P potato agar (pH 6.4, 4 days, 27° C.)

[6] = test system: Mycobacterium smegmatis ATCC 607; assay: Minimal inhibitory concentration (agar); type: cell-based; conditions: Mycolicibacterium smegmatis, ATCC607, 48 h; nutrient agar, pH 7.0, 2 days, 37° C.
Pseudomonas aeruginosa = assay: Minimal inhibitory concentration (agar); type: cell-based; conditions: 48 h, nutrient agar, pH 7.0, 2 days, 37° C.
Protocol: (§7) Medium N nutrient agar (pH 7.0, 2 days, 37° C.)
as §4
(§8) N nutrient agar (pH 7.0, 2 days, 37° C.)

Sarcina lutea PCI 1001 = assay: Minimal inhibitory concentration (agar); type: cell-based; conditions: Micrococcus luteus, PCI1001, 48 h, pH 7, nutrient agar, pH 7.0, 2 days, 37° C.; read-out: MIC
Protocol: as §7, §4, §8

[7] = test system: Bacillus subtilis PCI 219; assay: Minimal inhibitory concentration (agar); type: cell-based; conditions: Bacillus subtilis, PCI219, 48 h, pH 7, nutrient agar, pH 7.0, 2 days, 37° C.; read-out: MIC
Protocol: as §7, §4, §8

[8] = test system: Escherichia coli NIHJ (JC-2); assay: Minimal inhibitory concentration (agar); type: cell-based; conditions: 48 h, pH 7, nutrient agar, pH 7.0, 2 days, 37° C.
Protocol: as §7, §4, §8

[9] = test system: Staphylococcus aureus FDA 209P (JC-1); assay: Minimal inhibitory concentration (agar); type: cell-based; conditions: FDA209P, 48 h, nutrient agar, pH 7.0, 2 days, 37° C.
Protocol: as §7, §4, §8

Shigella flexneri = assay: Minimal inhibitory concentration (agar); type: cell-based; conditions: 48 h, nutrient agar, pH 7.0, 2 days, 37° C.
Protocol: as §7, §4, §8

[10] = test system: parasite of the genus Tricophyton; assay: Therapeutic effect on infectious diseases in guinea pigs and cattle; type: in vivo
Protocol: When dermatomycosis of cattle caused by mass infection of Trichophyton verrucosum is treated with nanaomycin A, nanaomycin A is dissolved or suspended in a suitable carrier, for example, olive oil, and is coated on the affected part directly with or without removal of the scales. […] The results obtained by once-coating of nanaomycin A and by twice-coating (the second coating is carried out a week after the first coating) are shown in Tables 2 and 3, respectively.

mycoplasmas = assay: Antimycoplasma activity (in words); type: cell-based
Solubility = type: physicochemical
Salmonella typhimurium = assay: Minimal inhibitory concentration (agar); type: cell-based; conditions: Salmonella enterica, 48 h, nutrient agar, pH 7.0, 2 days, 37° C.
[11] = test system: Staphylococcus aureus FDA 209P; assay: Minimal inhibitory concentration (agar); type: cell-based; conditions: FDA209P, 48 h, nutrient agar, pH 7.0, 2 days, 37° C.
Mycoplasma pneumoniae = assay: Minimal inhibitory concentration (PPLO agar); type: cell-based; conditions: 192 h, Eiken PPLO agar, pH 7.8, 8 days, 37° C.
fungi = assay: Antifungal activity (in words); type: cell-based
[12] = test system: Klebsiella pneumoniae PCI 602; assay: Minimal inhibitory concentration (agar); type: cell-based; conditions: PCI602, 48 h, nutrient agar, pH 7.0, 2 days, 37° C.

Question: For ethylkalafunginate [reference compound], which MIC (Saccharomyces sake) is on record?
Answer: > 100 µg/mL

Question: And the MIC (Trichophyton ferrugineum)?
Answer: > 100 µg/mL

Question: What about the MIC (Aspergillus niger) of the same molecule?
Answer: > 100 µg/mL

Question: What about the “Minimal Inhibitory Con.” value (Aspergillus fumigatus) of the same molecule?
Answer: > 100 µg/mL

Question: What about the “Minimal Inhibitory Con.” value (Microsporum gypseum) of the same molecule?
Answer: > 100 µg/mL

Question: And the MIC [1]?
Answer: > 100 µg/mL

Question: And the MIC (Trichophyton asteroides)?
Answer: > 100 µg/mL

Question: And the MIC (Trichophyton violaceum)?
Answer: > 100 µg/mL

Question: What about the MIC (Candida albicans; potato agar) of the same molecule?
Answer: > 100 µg/mL

Question: What about the MIC (Trichophyton rubrum) of the same molecule?
Answer: > 100 µg/mL

Question: And the MIC (Trichophyton schoenleini)?
Answer: > 100 µg/mL

Question: What does the source list for `CC1OC(CC(N)=O)CC2=C1C(=O)c1c(O)cccc1C2=O` (centres unmarked) [Nanaomycin C, nanaomycin C]?
Answer: antimicrobial activity [2]: inhibits mainly Gram-positive bacteria and mycoplasmas; MIC (Escherichia coli NIHJ): 100 µg/mL (≈ 332 µM); activity against Gram-positive bacteria (Gram-positive bacteria): as strong activity against Gram-positive bacteria as nanaomycin A; MIC [3]: 3.1 µg/mL (≈ 10.3 µM); MIC [4]: 12.5 µg/mL (≈ 41.5 µM); MIC [5]: 6.3 µg/mL (≈ 20.9 µM); MIC (Saccharomyces sake; Saccharomyces, 96 h, read-out: MIC): > 100 µg/mL; MIC (Aspergillus niger; Aspergillus niger, 96 h, read-out: MIC): > 100 µg/mL; MIC (Mycoplasma iners): 50 µg/mL (≈ 166 µM); MIC (Mycoplasma gallinarum): 12.5 µg/mL (≈ 41.5 µM); MIC (Sclerotinia cinerea): 100 µg/mL (≈ 332 µM); MIC [6]: 50 µg/mL (≈ 166 µM); MIC ([1]; Trichophyton interdigitale, 96 h, read-out: MIC): 100 µg/mL (≈ 332 µM); MIC (Pseudomonas aeruginosa): > 100 µg/mL; MIC (Sarcina lutea PCI 1001): 25 µg/mL (≈ 83 µM); MIC [7]: 6.3 µg/mL (≈ 20.9 µM); MIC [8]: > 100 µg/mL; MIC [9]: 3.1 µg/mL (≈ 10.3 µM); MIC (Shigella flexneri): > 100 µg/mL; therapeutic effect on Trichophyton infectious diseases [10]: poor therapeutic effect; activity against mycoplasma(s) (mycoplasmas): a weaker activity against fungi and mycoplasmas than nanaomycin A; Solubility in methanol, ethanol, ethylacetate, chloroform and acetone (Solubility; methanol, ethanol, ethylacetate, chloroform, acetone): Soluble; Solubility in n-hexane and petroleum ether (Solubility; n-hexane, petroleum ether): Insoluble; Solubility in water (Solubility; water): Insoluble; MIC (Salmonella typhimurium): > 100 µg/mL; MIC [11]: 6.3 µg/mL (≈ 20.9 µM); MIC (Candida albicans; Candida albicans, 96 h, pH 6.4, potato agar, read-out: MIC): > 100 µg/mL; MIC (Mycoplasma pneumoniae): 6.3 µg/mL (≈ 20.9 µM); activity against fungi (fungi): a weaker activity against fungi and mycoplasmas than nanaomycin A; MIC [12]: > 100 µg/mL

From US4324728A, “Compound nanaomycin A and derivatives thereof and a process for producing the same” (The Kitasato Institute, priority 1976, dated 1982)
